Experimental data: patent US20120045393A1 (priority 2009, published 2012)
Read-outs that look alike come from different tables or passages of the source. Non-standard residues stand in square brackets, D forms with d. *: point of attachment. Bpa = N[C@@H](Cc1ccc(C(=O)c2ccccc2)cc1)C(=O)O; d1Nal = N[C@H](Cc1cccc2ccccc12)C(=O)O; d2Nal = N[C@H](Cc1ccc2ccccc2c1)C(=O)O; Hyp = O=C(O)[C@@H]1C[C@@H](O)CN1; d3Pal = N[C@H](Cc1cccnc1)C(=O)O; His(1-Me) = 1-methylhistidine; DO3A10CM = not defined here; Nicotinoyl = O=C(c1cccnc1)*; Bpa4 = non-natural residue; Amfe4 = not defined here; Bzgly = not defined here; Dcfe4 = not defined here; Afe4 = not defined here; azaGly = NNC(=O)O; Sar = CNCC(=O)O; iPr = CC(C)*

Experiments:
[1] = system: EFO-27 human ovarian cancer cells (LHRH binding sites); assay: Direct binding/uptake of 177Lu-labeled LHRH-II analogs to EFO-27 cells; details: 177Lu-labeled analog, single concentration
Protocol: All reagents and chemicals were obtained from Sigma unless otherwise specified. LHRH analogs and ^177Lu-LHRH-II analogs were prepared by in-house chemists, as described elsewhere in the application. ^177Lu-LHRH-II analogs were not HPLC purified, as they had been prepared using formulation conditions that yielded high RCP without the need for purification. […] The HPLC-purified material was taken in a stabilizing buffer containing 5% lactose, 0.1% L-cysteine hydrochloride and 800 KIU/mL aprotinin and received as a lyophilized product and stored at −70° C. This was reconstituted in distilled water, aliquoted and stored at −70° C. The radioactivity was determined using Microplate Scintillation counter (Wallac Microbeta Trilux).
For the binding assay, EFO-27 cells were seeded onto 96-well clear flat-bottom tissue-culture-treated plates at 15,000/well density in the growth medium and used for assay on day 2 post-seeding. Cells were routinely checked for confluence and contamination and cell count was done occasionally to ensure consistency in cell numbers.
Direct Binding: Direct binding studies were carried out by incubating appropriate ^177Lu-labeled compounds with EFO-27 cells at 4° C. for 1 h followed by washing off the unbound radioactivity. Non-specific binding was determined by incubating the ^177Lu-LHRH-II analogs in the presence of a large excess (30 uM) of cold (unlabeled) LHRH-II analogs. A 96-well plate format was used.

[2] = system: LHRH binding sites on human ovarian cancer cells (EFO-27);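 also: Cell-associated radioactivity on confluent EFO-27 monolayers in 96-well plates, measured by microplate scintillation counting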
[3] = biological target: LHRH receptor (LHRH binding sites) on EFO-27 human ovarian cancer cells (human); assay: direct binding of 177Lu-labeled peptide to EFO-27 cells, single concentration
[4] = Table 8: N-substituted amino acid at position 1 and Gly as linker, in vitro binding on EFO-27 cells
[5] = read-out: 125I-LHRH II Competition EC50, Table 24, unlabeled analogs, EFO-27 cells
[6] = Table 13: linker between AA1 and DO3A10CM, EFO-27 cells

Molecule | 177Lu-LHRH II Direct binding % Bound [1] | EC50 [2, 5] | % Bound [3] | further results
N=C(N)NCCC[C@@H](NC(=O)[C@H](Cc1c[nH]cn1)NC(=O)[C@H](CO)NC(=O)[C@H](Cc1c[nH]c2ccccc12)NC(=O)[C@H](Cc1c[nH]cn1)NC(=O)CN(CCc1ccc(O)cc1)C(=O)CNC(=O)CN1CCN(CC(=O)O)CCN(CC(=O)O)CCN(CC(=O)O)CC1)C(=O)N[C@@H](Cc1c[nH]c2ccccc12)C(=O)N[C@@H](Cc1ccc(C(=O)c2ccccc2)cc1)C(=O)N1CCC[C@H]1C(=O)NNC(N)=O [compound 2797] | 4.64% |  |  | EC50 [2, 4]: 450 nM
2642 (DO3A10CM-G[d2Nal][Dcfe4][d3Pal]S[Metyr][dK](Nicotinoyl)LK(iPr)[Hyp][dA]-NH2; reading uncertain) [compound 2642] | 0.105% | > 10000 nM |  | 
2756 (DO3A10CM-[Sar][Amfe4]WSH[dR]W[Bpa4]P[azaGly]-NH2; reading uncertain) [compound 2756] | 5.17% | 280 nM |  | 
2624 (XHWSHXWXPX; N-methyl) [compound 2624] | 4.03% | 2010 nM |  | 
2741 (DO3A10CM-[Sar][His(1-Me)]WSH[dR]W[Bpa]P[azaGly]-NH2; reading uncertain) [compound 2741] | 1.35% | 2990 nM |  | 
2613 (DO3A10CM-G[Sar][Dcfe4][d1Nal]S[Metyr][dK](Nicotinoyl)LK(iPr)P[dA]-NH2; reading uncertain) [compound 2613] | 0.17% | > 10000 nM |  | 
2738 (XFWSHXWXPX; N-methyl) [compound 2738] | 1.41% |  |  | 
N=C(N)NCCC[C@H](NC(=O)[C@@H](Cc1ccc2ccccc2c1)NC(=O)CN1CCN(CC(=O)O)CCN(CC(=O)O)CCN(CC(=O)O)CC1)C(=O)N[C@@H](Cc1c[nH]c2ccccc12)C(=O)N[C@@H](CO)C(=O)N[C@@H](Cc1c[nH]cn1)C(=O)N[C@H](CCCNC(=N)N)C(=O)N[C@@H](Cc1c[nH]c2ccccc12)C(=O)N[C@@H](Cc1ccc(C(=O)c2ccccc2)cc1)C(=O)N1CCC[C@H]1C(=O)NNC(N)=O [compound 2813] | 18.80% | 300 nM |  | 
2823 (XHWSHXWXPX; not fully specified; N-methyl) [compound 2823] | 1.00% | 1610 nM |  | 
2766 (DO3A10CM-G[d1Nal]HWSH[dR]W[Bpa]P[azaGly]-NH2; reading uncertain) [compound 2766] | 10.29% | 620 nM |  | 
N=C(N)NCCC[C@@H](NC(=O)[C@H](Cc1c[nH]cn1)NC(=O)[C@H](CO)NC(=O)[C@H](Cc1c[nH]c2ccccc12)NC(=O)[C@H](Cc1c[nH]cn1)NC(=O)[C@@H](Cc1ccc2ccccc2c1)NC(=O)CN1CCN(CC(=O)O)CCN(CC(=O)O)CCN(CC(=O)O)CC1)C(=O)N[C@@H](Cc1c[nH]c2ccccc12)C(=O)N[C@@H](Cc1ccc(C(=O)c2ccccc2)cc1)C(=O)N1CCC[C@H]1C(=O)NNC(N)=O [compound 2666] | 13.25% |  |  | 
2440 (DO3A10CM-[Sar]HWSH[dR]WYP[azaGly]-NH2; reading uncertain) [compound 2440] | 0.21% | > 10000 nM |  | 
2721 (XHWSHXWXPX; not fully specified; N-methyl) [compound 2721] | 0.79% | 4550 nM |  | 
N=C(N)NCCC[C@H](NC(=O)[C@@H](Cc1ccc2ccccc2c1)NC(=O)CN1CCN(CC(=O)O)CCN(CC(=O)O)CCN(CC(=O)O)CC1)C(=O)N[C@@H](Cc1c[nH]c2ccccc12)C(=O)N[C@@H](CO)C(=O)N[C@@H](Cc1c[nH]cn1)C(=O)N[C@H](CCCNC(=N)N)C(=O)N[C@@H](Cc1c[nH]c2ccccc12)C(=O)N[C@@H](Cc1ccc(C(=O)c2ccccc2)cc1)C(=O)N1CCC[C@H]1C(=O)NCCOCCN [compound 2968] | 23.5% |  |  | EC50 [2]: 240 nM
2725 (XHWSHXWXPX; not fully specified; N-methyl) [compound 2725] | 0.41% | 2260 nM |  | 
2644 (DO3A10CM-G[d2Nal][Dcfe4][d3Pal]SH[dR]WYP[dA]-NH2; reading uncertain) [compound 2644] | 2.13% | 2910 nM |  | 
2896 (XHWSHXWXPX; not fully specified; N-methyl) [compound 2896] | 0.70% | 3200 nM |  | 

Molecule | 177Lu-LHRH II Direct binding % Bound [1] | EC50 [2, 5] | % Bound [3] | further results
2722 (XHWSHXWXPX; not fully specified; N-methyl) [compound 2722] | 0.36% | 4620 nM |  | 
N=C(N)NCCC[C@@H](NC(=O)[C@H](Cc1c[nH]cn1)NC(=O)[C@H](CO)NC(=O)[C@H](Cc1c[nH]c2ccccc12)NC(=O)[C@H](Cc1c[nH]cn1)NC(=O)CN(Cc1ccccc1)C(=O)CNC(=O)CN1CCN(CC(=O)O)CCN(CC(=O)O)CCN(CC(=O)O)CC1)C(=O)N[C@@H](Cc1c[nH]c2ccccc12)C(=O)N[C@@H](Cc1ccc(C(=O)c2ccccc2)cc1)C(=O)N1CCC[C@H]1C(=O)NNC(N)=O [compound 2792] | 1.28% | 1800 nM |  | EC50 [2, 4]: 2270 nM; EC50 [2, 6]: 650 nM
CN(CC(=O)N[C@@H](Cc1c[nH]cn1)C(=O)N[C@@H](Cc1c[nH]c2ccccc12)C(=O)N[C@@H](CO)C(=O)N[C@@H](Cc1c[nH]cn1)C(=O)N[C@H](CCCNC(=N)N)C(=O)N[C@@H](Cc1c[nH]c2ccccc12)C(=O)N[C@@H](Cc1ccc(C(=O)c2ccccc2)cc1)C(=O)N1CCC[C@H]1C(=O)NNC(N)=O)C(=O)CN1CCN(CC(=O)O)CCN(CC(=O)O)CCN(CC(=O)O)CC1 [compound 2443] | 1.8% | 950 nM |  | EC50 ([2]; Table 11: modification of amino acid at position 5, EFO-27 cells): 950 nM; EC50 [2, 6]: 950 nM
2812 (DO3A10CM-[d2Nal][Afe4]WSH[dR]W[Bpa]P[azaGly]-NH2; not fully specified; printed as X-Dnal2-Afe4-Trp-Ser-His-Darg-Trp-Bpa4-Pro-azaG-NH2; reading uncertain) [compound 2812] | 5.80% | 3690 nM |  | 
2742 (XHWSHXWXPX; N-methyl) [compound 2742] | 0.125% | > 10000 nM |  | 
DO3A10CM-[Sar][His(1-Me)]WSH[dR]W[Bpa]P[azaGly]-NH2 (reading uncertain; also: 177Lu complexed by DO3A10CM, printed as 177Lu-DO3A10CM-Sar-His(1-Me)-Trp-Ser-His-Darg-Trp-Bpa4-Pro-azaGly-NH2) [^177Lu-BRU-2741] |  |  | 1.35% | 
XHWSHXWXPX (177Lu held by the N-terminal DO3A10CM: 177Lu-DO3A10CM-Sar-His-Trp-Ser-His-Darg-Trp-Tha-Pro-azaGly-NH2) [^177Lu-BRU-2742] |  |  | 0.125% | 
DO3A10CM-G[d1Nal]HWSH[dR]W[Bpa]P[azaGly]-NH2 (reading uncertain; also: 177Lu complexed by DO3A10CM, printed as 177Lu-DO3A10CM-Gly-Dnal1-His-Trp-Ser-His-Darg-Trp-Bpa4-Pro-azaGly-NH2) [^177Lu-BRU-2766] |  |  | 10.3% | 
DO3A10CM-[Sar]HWSH[dR]WP[azaGly]-NH2 (reading uncertain; also: 177Lu complexed by DO3A10CM, printed as 177Lu-DO3A10CM-Sar-His-Trp-Ser-His-Darg-Trp-azaG-NH2) [^177Lu-BRU-2767] |  |  | 1.06% | 
DO3A10CM-G[Bzgly]HWSH[dR]W[Bpa]P[azaGly]-NH2 (reading uncertain; also: 177Lu complexed by DO3A10CM, printed as 177Lu-DO3A10CM-Gly-Bzgly-His-Trp-Ser-His-Darg-Trp-Bpa4-Pro-azaGly-NH2) [^177Lu-BRU-2792] |  |  | 1.28% | 
XHWSHXWXPX (177Lu held by the N-terminal DO3A10CM: 177Lu-DO3A10CM-Dafe4-His-Trp-Ser-His-Darg-Trp-Bpa4-Pro-azaGly-NH2) [^177Lu-BRU-2810] |  |  | 2.4% | 
DO3A10CM-[d2Nal][Afe4]WSH[dR]W[Bpa]P[azaGly]-NH2 (reading uncertain; also: 177Lu held by N-terminal DO3A10CM, printed as 177Lu-DO3A10CM-Dnal2-Afe4-Trp-Ser-His-Darg-Trp-Bpa4-Pro-azaGly-NH2) [^177Lu-BRU-2812] |  |  | 5.8% | 
XHWSHXWXPX (177Lu held by the N-terminal DO3A10CM: 177Lu-DO3A10CM-Sar-His-Trp-Ser-His-Darg-Trp-Thy-Pro-azaGly-NH2) [^177Lu-BRU-2823] |  |  | 1% | 
XHWSHXWXPX (177Lu held by the N-terminal DO3A10CM: 177Lu-DO3A10CM-Dnal1-His-Trp-Ser-His-Darg-Trp-Bpa4-Pro-azaGly-NH2) [^177Lu-BRU-2869] |  |  | 9.2% | 
XHWSHXWXPX (177Lu held by the N-terminal DO3A10CM: 177Lu-DO3A10CM-Dphe-His-Trp-Ser-His-Darg-Trp-Bpa4-Pro-azaGly-NH2) [^177Lu-BRU-2894] |  |  | 3.4% | 
XHWSHXWXPX (177Lu held by the N-terminal DO3A10CM: 177Lu-DO3A10CM-Adoa-Adoa-Sar-His-Trp-Ser-His-Darg-Trp-Bpa4-Pro-azaGly-NH2) [^177Lu-BRU-2896] |  |  | 0.7% | 
